We go through 79 compounds from the METLIN SMRT retention time set (Domingo-Almenara et al. 2019).

Each structure is given as a SMILES string.

The data set can be described thus: gradient 5% acetonitrile 3 min, to 50% in 2 min, to 85% in 15 min, held 3 min, 100 µL/min. The following applies: column: Zorbax Extend-C18 2.1 x 50 mm; eluents: water / acetonitrile, 0.1% formic acid. In short, it runs like this:
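In both positive and negative ionization mode, a quadrupole time-of-flight mass spectrometer coupled to HPLC analyzed pure standards run in mixtures of ~100 molecules. The Zorbax Extend-C18 column (2.1 × 50 mm, 1.8 μm) was operated at 100 μL/min with water and acetonitrile, each containing 0.1% formic acid. The dead volume was 40 μL and the dwell volume 900 μL. Retention time came from adduct peaks that were computationally picked and individually inspected by hand.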
In turn, `COc1cccc(NC(=O)C2CCN(S(=O)(=O)c3cc(-c4noc(C5CC5)n4)cs3)CC2)c1` had an RP-LC retention time of 1000 s.

`CCOC(=O)c1[nH]c(C)c(CCC(=O)N2CCC(C(=O)NCc3ccc(OC)c(OC)c3)CC2)c1C` showed an RP-LC retention time of 700 s.

`COc1ccc(-c2c(C(=O)Nc3ccc4c(c3)OCCO4)nc3ccccn23)cc1` registered an RP-LC retention time of 919 s.

The compound `CCc1noc(NC(C)=O)c1-c1ccc(OC)c(S(=O)(=O)Nc2ccc(C)cc2Cl)c1` came in with an RP-LC retention time of 894 s.

On to `O=C(CN1C(=O)NC2(CCCCC2)C1=O)Nc1ccc2c(c1)OCO2`, for which the RP-LC retention time worked out at 709 s.

Turning to `COc1ccc(-c2noc(CN3C(=O)COc4ccccc43)n2)cc1`, the RP-LC retention time stood at 953 s.

Compound `Cc1ccc(C2NC(=O)N(CC(=O)Nc3ccc(Br)cc3F)C3=C2C(=O)OC3)cc1` (centres undefined) came in with an RP-LC retention time of 861 s.

In turn, `COc1ccc(CNc2nc3ccncc3n(C(C)C)c2=O)cc1OC` came in with an RP-LC retention time of 550 s.

In the case of `CCCNC(=O)N1c2ccccc2NC2=C(C(=O)CC(c3ccco3)C2)C1c1ccc(OC)cc1` (centres undefined), the RP-LC retention time turned out to be 805 s.

In the case of `CCc1ccccc1NC(=O)N1C[C@H](c2nc(-c3ccccc3)no2)[C@@H](C)C1`, the RP-LC retention time stood at 1040 s.

The compound `CCOc1cc(=O)n2c(c1C(=O)NC(C)C)CCCCC2` showed an RP-LC retention time of 623 s.

In turn, `O=C(NC1CCN(c2cc(-c3cccs3)[nH]n2)CC1)c1ccc(F)cc1F` showed an RP-LC retention time of 769 s.

`COc1ccc(N2C(=O)C3N=NN(Cc4nc(-c5cccc(C)c5)no4)C3C2=O)cc1OC` (centres undefined) returned an RP-LC retention time of 911 s.

As for `Cc1ccc(-c2nc(C)cc(OCC(=O)NCc3ccc4c(c3)OCO4)n2)cc1`, the RP-LC retention time is 919 s.

`Cc1nc(Nc2ccc(F)cn2)sc1C(=O)N1CCC2(CC1)OCCO2` showed an RP-LC retention time of 686 s.

Regarding `O=C(NC1CCCCC1)N1CCC(N2C(=O)C3(CCCCC3)C2c2ccncc2)CC1` (centres undefined), the RP-LC retention time amounted to 659 s.

Turning to `CCNC(=O)N1CCCC(c2cccc(C(=O)NCCCN3CCCCC3)c2)C1` (centres undefined), the RP-LC retention time is 596 s.

Compound `O=C(CN1C(=O)CCc2cc(Br)ccc21)N1CCN(c2ccc(F)cc2)CC1` came in with an RP-LC retention time of 949 s.

`CCCCN(CCNC(=O)C1CCCN(c2ncnc3c2nc2n3CCCCC2)C1)Cc1ccco1` (centres undefined) had an RP-LC retention time of 656 s.

In turn, `COC(=O)c1c(NCc2ccc(OC)cc2)c2cccc(Cl)c2[nH]c1=O` registered an RP-LC retention time of 788 s.

The compound `CCOc1ccc(S(=O)(=O)N2CCC(C(=O)NCCOC)CC2)cc1C` came in with an RP-LC retention time of 783 s.

The compound `O=C(c1ccc(F)cc1F)N1CCN(c2nc(CN3CCCC3)cs2)CC1` had an RP-LC retention time of 613 s.

For `Cc1nc(OC(C)C)cc(N2CCN(C(=O)CCc3ccccc3)CC2)n1`, the RP-LC retention time came to 617 s.

In turn, `CC(C)N1CC(CNC(=O)c2ccco2)C2(CCCCC2)C1` (centres undefined) showed an RP-LC retention time of 593 s.

Regarding `COC(=O)C1=CN(c2cc(OC)ccc2OC)c2cc(F)ccc2S1(=O)=O`, the RP-LC retention time worked out at 819 s.

In turn, `COCC(=O)N1CCOc2ccc(N(C)C)cc2C1` displayed an RP-LC retention time of 550 s.

With `O=c1c2sccc2n(Cc2nc(-c3ccc(F)cc3)no2)c(=O)n1CCc1ccccc1`, the RP-LC retention time was 1140 s.

`CCCNc1cc(N2CCC(CCC(=O)NCC3CC3)CC2)ncn1` had an RP-LC retention time of 560 s.

The compound `Cc1sc2ccn(C)c(=O)c2c1C(=O)NCC1CCCCC1` displayed an RP-LC retention time of 816 s.

As for `Cc1ccc(-n2ncc3c(=O)n(Cc4nc(-c5ccccc5)no4)cnc32)cc1Cl`, the RP-LC retention time was determined as 1190 s.

The compound `O=C(CCCN1C(=O)C(c2ccccc2)Oc2cccnc21)NCCCN1CCOCC1` (centres undefined) returned an RP-LC retention time of 615 s.

In turn, `c1ccc(Cn2cnnc2C2CCN(CC3CC3)CC2)cc1` yielded an RP-LC retention time of 566 s.

`Cc1ccc(C)c(NC(=O)N2CCc3nc[nH]c3C2)c1` displayed an RP-LC retention time of 580 s.

Compound `CN1c2cc(Cl)ccc2C(=O)NC12CCN(C(=O)NCc1cccc(F)c1)CC2` gave an RP-LC retention time of 1010 s.

In turn, `COc1ccc(CCNC(=O)C2CCc3nc(N4CCCC4)ncc3C2)cc1OC` (centres undefined) returned an RP-LC retention time of 563 s.

Turning to `CCOc1ccccc1NC(=O)Cn1c(=O)n(-c2ccccc2)c(=O)c2c1cc(C)n2C`, the RP-LC retention time is 909 s.

The compound `Cc1cc2nn(CC(=O)Nc3ccc(F)c(F)c3)c(=O)n2c(Nc2ccccc2)n1` registered an RP-LC retention time of 967 s.

On to `Cc1ccc(C)c(NC(=O)COc2nc(C)nc3ccccc23)c1`, for which the RP-LC retention time amounted to 754 s.

`O=C(NCCCn1cccn1)c1cccc2[nH]cc(CN3CCSCC3)c12` displayed an RP-LC retention time of 628 s.

As to `CCOC(=O)c1cccc(N2C=C(C#N)S(=O)(=O)c3cc(F)ccc32)c1`, the RP-LC retention time turned out to be 937 s.

In the case of `Cc1nn(C)cc1C(=O)NC1CCN(c2ccc(=O)n(C)n2)C1` (centres undefined), the RP-LC retention time is 562 s.

`CNC(=O)c1sc(-c2ccccc2F)nc1C` yielded an RP-LC retention time of 772 s.

In the case of `CCOC(=O)c1ccccc1NC(=O)Cn1nc2ccc(-c3ccc(Cl)cc3)nn2c1=O`, the RP-LC retention time came to 989 s.

Regarding `COc1ccc(S(=O)(=O)N2CCC(C(=O)NCCc3csc(-c4ccccc4)n3)CC2)cc1`, the RP-LC retention time is 912 s.

Compound `COc1ccccc1CNC(=O)C1CCCN1S(=O)(=O)c1ccc2c(c1)C(C)(C)C(=O)N2C` (centres undefined) showed an RP-LC retention time of 843 s.

`CNC(=O)c1cc(=O)n(CC(=O)Nc2ccc3c(c2)OCO3)c2ccccc12` showed an RP-LC retention time of 658 s.

`Cc1nc(Nc2ccc(Cl)cn2)sc1C(=O)N1CCN(C(C)C)CC1` had an RP-LC retention time of 612 s.

On to `Cc1cccc(NC(=O)C2CCN(S(=O)(=O)c3cc(C(=O)N4CCCC4)cs3)CC2)c1`, for which the RP-LC retention time was determined as 819 s.

Regarding `CC(=O)Nc1ccc(NC(=O)C2CC(=O)N(c3n[nH]c4cccc(F)c34)C2)cc1` (centres undefined), the RP-LC retention time came to 634 s.

Consider `O=C(CCCn1c(=O)c2cccn2c2ccc(F)cc21)NCc1cccs1`, for which the RP-LC retention time was 837 s.

In turn, `O=S(=O)(NCc1ccco1)c1cccc(-c2nc(-c3ccccc3)no2)c1` displayed an RP-LC retention time of 1050 s.

Regarding `CC(C)c1noc(COC2CCCN(C(=O)NCc3ccco3)C2)n1` (centres undefined), the RP-LC retention time turned out to be 774 s.

In turn, `Cc1cc(C(=O)N2CCC(N3C(=O)C4(CCCC4)C3c3scnc3C)CC2)n(C)n1` (centres undefined) yielded an RP-LC retention time of 691 s.

Take `Cc1cc(-c2c(C)sc(C)c2S(=O)(=O)Nc2ccc(C)c(Cl)c2)n[nH]1`: the RP-LC retention time was determined as 1100 s.

For the compound `CN(C)c1ccc2c(c1)CN(C(=O)c1ccsc1)CCO2`, the RP-LC retention time is 586 s.

Regarding `CC(=O)N1CCc2cc(-c3ccc(C(=O)NCc4ccccn4)cc3)ccc21`, the RP-LC retention time came to 584 s.

With `COc1ccc(-c2cn3c(CC(=O)Nc4ccc(Br)cc4F)csc3n2)cc1OC`, the RP-LC retention time came out at 821 s.

`Cc1occc1-c1nnc(SC(C)C(=O)N2CCCc3ccccc32)o1` (centres undefined) gave an RP-LC retention time of 981 s.

Compound `CCOc1ccccc1-c1noc(-c2nnn3c2COC(c2ccc(F)cc2)C3)n1` (centres undefined) gave an RP-LC retention time of 1130 s.

Compound `CC(CC(=O)NCCC1=CCCCC1)Cc1nnc2c(=O)n(-c3cccc(F)c3)ccn12` (centres undefined) came in with an RP-LC retention time of 813 s.

Compound `Cc1ccc(-c2cn3ccn(-c4ccc(F)c(Cl)c4)c(=O)c3n2)cc1` showed an RP-LC retention time of 927 s.

`CCc1ccccc1NC(=O)C1CCCN(S(=O)(=O)c2c[nH]c(C(=O)N3CCCCCC3)c2)C1` (centres undefined): the RP-LC retention time is 911 s.

With `COc1cc(C(=O)N2CCC3(CC2)NC(=O)c2ccccc2N3C)cc(OC)c1OC`, the RP-LC retention time was found to be 669 s.

Regarding `COc1c(C(=O)NCc2ccc(C)o2)sc2cc(Cl)ccc12`, the RP-LC retention time is 1120 s.

`Cc1cc(C)c2c(N3CCOCC3)nc(C(=O)NCCC(C)C)nc2n1` gave an RP-LC retention time of 648 s.

`CC(Oc1ccc(=O)n(-c2ccc(F)cc2)n1)C(=O)Nc1cccc(F)c1` (centres undefined) came in with an RP-LC retention time of 793 s.

For `COc1ccc(OC)c(NC(=O)Cc2csc3nc(-c4ccc(C)c(C)c4)cn23)c1`, the RP-LC retention time was 772 s.

For the compound `CCOc1ccccc1NC(=O)CSc1ncc(-c2cccc(Br)c2)o1`, the RP-LC retention time was determined as 1170 s.

`CCOC(=O)c1cc2c([nH]c1=O)CC(c1cccc(C)c1)CC2=O` (centres undefined) gave an RP-LC retention time of 653 s.

In turn, `Cc1noc(-c2ccnc(-n3cnc(C(=O)NC(C)c4ccccc4)c3)c2)n1` (centres undefined) had an RP-LC retention time of 867 s.

`COc1ccc(-n2c(=O)n(C)c(=O)c3cc(C(=O)Nc4ccccc4C)cnc32)cc1`: the RP-LC retention time turned out to be 849 s.

Compound `CC1(C(=O)Nc2ccc(Cl)cc2F)Oc2cccnc2NC1=O` (centres undefined) gave an RP-LC retention time of 774 s.

As to `Cc1nn(-c2ccc(F)cc2)c2nc(N3CCCC(C(=O)NC4CCCCCC4)C3)sc12` (centres undefined), the RP-LC retention time was 1240 s.

The compound `COCc1cc(=O)n(CC(=O)Nc2cc(F)ccc2F)c(N2CCOCC2)n1` displayed an RP-LC retention time of 838 s.

In turn, `CCCN1C(=O)Cc2ccccc2C1C(=O)O` (centres undefined) came in with an RP-LC retention time of 668 s.

For the compound `CCCn1ccc2sc(C)c(C(=O)N3CCN(c4ccc(OC)cc4)CC3)c2c1=O`, the RP-LC retention time was determined as 762 s.

The compound `COC(=O)C1=C(CN2CCOCC2)NC(=O)NC1c1ccc(OC)c(OC)c1` (centres undefined) came in with an RP-LC retention time of 571 s.

Compound `Cc1ccc(C2CC(=O)N(c3ccc(C(C)C)cc3)C(=O)C2)cc1` yielded an RP-LC retention time of 1120 s.

Consider `COc1ccc(CCc2nc3nccc(-c4cccc(OC)c4)n3n2)cc1`, for which the RP-LC retention time turned out to be 879 s.
